Laboratory results published in PMC6407917, “Identification of GSK3186899/DDD853651 as a Preclinical Development Candidate for the Treatment of Visceral Leishmaniasis” (Journal of Medicinal Chemistry, 2018).

What was measured:
Experiment in all cases: biochemical
Design in all cases: species or system HEK293/K-562/placenta mixed human extract; Kinobeads chemoproteomic competition binding, quantified by TMT LC-MS/MS, dose response up to 20 uM
[1] = target: JAK1 (Homo sapiens, UniProt P23458)
[2] = target: CSNK1E (Homo sapiens, UniProt P49674)
Sequence of CSNK1E (P49674 whole entry): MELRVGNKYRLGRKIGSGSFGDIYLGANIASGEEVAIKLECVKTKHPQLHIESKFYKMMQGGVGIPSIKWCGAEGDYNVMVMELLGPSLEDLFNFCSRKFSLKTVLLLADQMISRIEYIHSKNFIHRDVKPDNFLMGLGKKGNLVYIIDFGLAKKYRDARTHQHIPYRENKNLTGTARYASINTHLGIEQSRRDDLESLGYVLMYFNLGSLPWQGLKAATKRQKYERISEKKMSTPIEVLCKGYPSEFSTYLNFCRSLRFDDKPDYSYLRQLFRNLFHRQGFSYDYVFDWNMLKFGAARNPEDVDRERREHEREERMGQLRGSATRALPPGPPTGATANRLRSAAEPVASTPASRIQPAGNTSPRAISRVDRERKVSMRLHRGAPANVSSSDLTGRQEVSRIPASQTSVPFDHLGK

[3] = target: FLT4 (Homo sapiens, UniProt P35916)
[4] = target: BMX (Homo sapiens, UniProt P51813)
[5] = target: MET (Homo sapiens, UniProt P08581)
[6] = target: LIMK2 (Homo sapiens, UniProt P53671)
[7] = target: CAMK2D (Homo sapiens, UniProt Q13557)
Sequence of CAMK2D (Q13557 whole entry): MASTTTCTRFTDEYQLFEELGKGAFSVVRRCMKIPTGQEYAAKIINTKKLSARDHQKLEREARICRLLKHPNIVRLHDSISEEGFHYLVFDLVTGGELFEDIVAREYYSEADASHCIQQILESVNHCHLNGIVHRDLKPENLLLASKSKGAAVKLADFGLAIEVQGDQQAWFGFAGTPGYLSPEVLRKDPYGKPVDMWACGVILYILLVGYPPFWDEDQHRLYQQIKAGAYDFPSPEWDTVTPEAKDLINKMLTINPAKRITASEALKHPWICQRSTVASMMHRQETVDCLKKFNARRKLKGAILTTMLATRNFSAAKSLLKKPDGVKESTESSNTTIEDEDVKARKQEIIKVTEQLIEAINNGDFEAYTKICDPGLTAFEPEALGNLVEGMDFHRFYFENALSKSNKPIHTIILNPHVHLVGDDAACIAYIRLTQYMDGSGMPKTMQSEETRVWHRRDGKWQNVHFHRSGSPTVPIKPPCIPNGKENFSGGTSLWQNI

[8] = target: BTK (Homo sapiens, UniProt Q06187)
[9] = target: STK38 (Homo sapiens, UniProt Q15208)
[10] = target: MAPK1 (Homo sapiens, UniProt P28482)
Sequence of MAPK1 (P28482 whole entry): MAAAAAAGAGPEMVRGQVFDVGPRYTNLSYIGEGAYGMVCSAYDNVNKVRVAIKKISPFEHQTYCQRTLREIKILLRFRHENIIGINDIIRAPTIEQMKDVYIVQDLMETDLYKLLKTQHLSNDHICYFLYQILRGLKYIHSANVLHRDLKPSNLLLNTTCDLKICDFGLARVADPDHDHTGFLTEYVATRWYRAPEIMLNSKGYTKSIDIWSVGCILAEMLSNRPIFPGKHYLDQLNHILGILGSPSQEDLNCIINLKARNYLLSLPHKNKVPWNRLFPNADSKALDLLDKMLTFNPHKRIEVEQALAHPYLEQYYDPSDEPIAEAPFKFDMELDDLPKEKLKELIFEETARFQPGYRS

[11] = target: SRC (Homo sapiens, UniProt P12931)
Sequence of SRC (P12931 whole entry): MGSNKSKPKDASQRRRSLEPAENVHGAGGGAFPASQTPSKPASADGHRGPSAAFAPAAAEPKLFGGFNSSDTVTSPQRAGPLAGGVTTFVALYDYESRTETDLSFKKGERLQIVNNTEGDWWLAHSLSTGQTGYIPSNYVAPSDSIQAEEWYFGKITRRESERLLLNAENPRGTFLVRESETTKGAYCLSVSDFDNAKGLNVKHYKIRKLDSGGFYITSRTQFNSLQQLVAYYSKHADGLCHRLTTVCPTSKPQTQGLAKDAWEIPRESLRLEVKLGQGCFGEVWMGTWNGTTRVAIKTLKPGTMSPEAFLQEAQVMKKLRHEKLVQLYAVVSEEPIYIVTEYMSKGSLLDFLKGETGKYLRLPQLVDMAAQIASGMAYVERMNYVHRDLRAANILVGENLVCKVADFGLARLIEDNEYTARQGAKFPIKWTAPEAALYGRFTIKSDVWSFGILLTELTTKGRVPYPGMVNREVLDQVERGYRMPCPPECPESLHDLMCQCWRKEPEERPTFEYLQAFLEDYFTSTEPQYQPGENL

[12] = target: ERN1 (Homo sapiens, UniProt O75460)
[13] = target: JAK2 (Homo sapiens, UniProt O60674)
[14] = target: SYK (Homo sapiens, UniProt P43405)
[15] = target: CDKL5 (Homo sapiens, UniProt O76039)
[16] = target: CSNK2A1 (Homo sapiens, UniProt P68400)
Sequence of CSNK2A1 (P68400 whole entry): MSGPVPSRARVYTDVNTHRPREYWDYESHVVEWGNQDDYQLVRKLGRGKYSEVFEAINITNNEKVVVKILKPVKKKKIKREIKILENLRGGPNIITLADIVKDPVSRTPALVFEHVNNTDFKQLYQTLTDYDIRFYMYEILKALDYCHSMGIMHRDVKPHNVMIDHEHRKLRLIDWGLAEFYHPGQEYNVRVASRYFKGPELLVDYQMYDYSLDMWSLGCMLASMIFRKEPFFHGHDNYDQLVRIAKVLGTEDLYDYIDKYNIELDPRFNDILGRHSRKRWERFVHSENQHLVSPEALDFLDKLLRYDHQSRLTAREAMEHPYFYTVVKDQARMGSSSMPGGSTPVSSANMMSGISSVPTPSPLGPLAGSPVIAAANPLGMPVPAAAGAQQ

[17] = target: MAPK9 (Homo sapiens, UniProt P45984)
[18] = target: MINK1 (Homo sapiens, UniProt Q8N4C8)
Sequence of MINK1 (Q8N4C8 whole entry): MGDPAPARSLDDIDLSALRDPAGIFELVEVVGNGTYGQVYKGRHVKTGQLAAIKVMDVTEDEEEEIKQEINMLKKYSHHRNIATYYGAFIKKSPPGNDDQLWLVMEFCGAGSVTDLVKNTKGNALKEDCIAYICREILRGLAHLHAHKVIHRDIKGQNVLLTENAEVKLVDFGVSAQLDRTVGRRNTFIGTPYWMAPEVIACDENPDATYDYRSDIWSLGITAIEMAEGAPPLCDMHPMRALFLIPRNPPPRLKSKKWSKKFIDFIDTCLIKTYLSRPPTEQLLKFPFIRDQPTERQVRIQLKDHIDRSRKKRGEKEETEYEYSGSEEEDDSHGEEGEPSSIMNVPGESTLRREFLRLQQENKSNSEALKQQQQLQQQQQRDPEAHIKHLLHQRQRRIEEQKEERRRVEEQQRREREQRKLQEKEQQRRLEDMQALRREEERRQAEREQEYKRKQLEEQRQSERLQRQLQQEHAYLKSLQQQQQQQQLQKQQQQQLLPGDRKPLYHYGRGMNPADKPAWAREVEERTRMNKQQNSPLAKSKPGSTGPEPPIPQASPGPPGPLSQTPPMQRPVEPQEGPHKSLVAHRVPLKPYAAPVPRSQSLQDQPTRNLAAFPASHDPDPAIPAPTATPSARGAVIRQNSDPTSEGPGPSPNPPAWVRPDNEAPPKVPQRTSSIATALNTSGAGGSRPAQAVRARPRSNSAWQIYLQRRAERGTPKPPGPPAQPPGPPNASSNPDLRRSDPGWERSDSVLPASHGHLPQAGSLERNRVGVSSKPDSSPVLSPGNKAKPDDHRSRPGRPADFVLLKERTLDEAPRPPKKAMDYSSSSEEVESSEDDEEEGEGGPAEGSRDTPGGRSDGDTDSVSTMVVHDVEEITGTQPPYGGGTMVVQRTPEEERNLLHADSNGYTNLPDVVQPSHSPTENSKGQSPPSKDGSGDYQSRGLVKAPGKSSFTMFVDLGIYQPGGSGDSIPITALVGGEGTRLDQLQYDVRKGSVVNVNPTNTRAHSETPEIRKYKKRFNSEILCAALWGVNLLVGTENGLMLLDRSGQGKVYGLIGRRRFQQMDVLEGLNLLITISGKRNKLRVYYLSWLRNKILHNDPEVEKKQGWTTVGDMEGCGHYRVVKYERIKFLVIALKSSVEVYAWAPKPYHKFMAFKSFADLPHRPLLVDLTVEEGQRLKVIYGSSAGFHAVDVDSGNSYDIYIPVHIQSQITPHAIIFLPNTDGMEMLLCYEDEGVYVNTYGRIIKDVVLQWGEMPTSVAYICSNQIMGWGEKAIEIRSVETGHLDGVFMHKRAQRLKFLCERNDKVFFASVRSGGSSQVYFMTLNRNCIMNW

[19] = target: FN3K (Homo sapiens, UniProt Q9H479)
Sequence of FN3K (Q9H479 whole entry): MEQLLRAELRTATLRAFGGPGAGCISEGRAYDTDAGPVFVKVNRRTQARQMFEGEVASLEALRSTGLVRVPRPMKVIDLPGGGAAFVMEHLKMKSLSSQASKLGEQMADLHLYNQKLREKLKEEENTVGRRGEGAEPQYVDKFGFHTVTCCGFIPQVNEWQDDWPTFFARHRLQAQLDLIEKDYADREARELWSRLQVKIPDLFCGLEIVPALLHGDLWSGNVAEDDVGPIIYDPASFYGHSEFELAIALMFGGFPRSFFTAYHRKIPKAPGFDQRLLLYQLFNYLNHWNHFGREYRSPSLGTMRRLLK

[20] = target: BMP2K (Homo sapiens, UniProt Q9NSY1)
[21] = target: ABL2 (Homo sapiens, UniProt P42684)
Sequence of ABL2 (P42684 whole entry): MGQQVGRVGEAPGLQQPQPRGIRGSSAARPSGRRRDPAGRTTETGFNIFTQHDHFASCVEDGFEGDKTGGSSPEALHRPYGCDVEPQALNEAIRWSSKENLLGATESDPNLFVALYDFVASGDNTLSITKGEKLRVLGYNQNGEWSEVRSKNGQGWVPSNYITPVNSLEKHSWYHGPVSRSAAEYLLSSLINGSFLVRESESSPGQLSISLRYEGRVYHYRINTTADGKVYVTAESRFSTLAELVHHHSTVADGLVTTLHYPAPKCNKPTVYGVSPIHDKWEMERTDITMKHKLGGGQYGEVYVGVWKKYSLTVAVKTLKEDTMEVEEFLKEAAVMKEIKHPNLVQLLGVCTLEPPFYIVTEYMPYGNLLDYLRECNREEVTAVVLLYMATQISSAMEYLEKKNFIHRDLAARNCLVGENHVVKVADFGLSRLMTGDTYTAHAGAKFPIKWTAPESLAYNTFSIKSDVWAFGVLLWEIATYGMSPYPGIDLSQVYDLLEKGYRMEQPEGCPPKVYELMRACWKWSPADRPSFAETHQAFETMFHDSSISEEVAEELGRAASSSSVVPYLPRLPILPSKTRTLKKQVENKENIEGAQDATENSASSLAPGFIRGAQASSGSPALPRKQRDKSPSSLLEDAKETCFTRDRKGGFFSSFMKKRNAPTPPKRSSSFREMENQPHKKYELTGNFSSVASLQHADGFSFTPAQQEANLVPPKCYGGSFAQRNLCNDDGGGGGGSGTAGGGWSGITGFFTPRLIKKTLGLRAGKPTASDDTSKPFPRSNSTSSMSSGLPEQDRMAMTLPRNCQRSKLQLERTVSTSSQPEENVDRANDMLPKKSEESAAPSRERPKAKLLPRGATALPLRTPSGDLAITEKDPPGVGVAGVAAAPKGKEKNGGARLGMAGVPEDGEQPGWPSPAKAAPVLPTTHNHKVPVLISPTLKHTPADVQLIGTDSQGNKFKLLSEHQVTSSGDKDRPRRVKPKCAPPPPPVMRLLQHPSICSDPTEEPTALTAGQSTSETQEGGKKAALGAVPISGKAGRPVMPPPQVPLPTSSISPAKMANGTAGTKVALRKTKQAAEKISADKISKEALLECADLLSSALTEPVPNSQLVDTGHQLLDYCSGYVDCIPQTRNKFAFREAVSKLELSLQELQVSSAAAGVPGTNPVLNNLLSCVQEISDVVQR

Measured: IC50

COc1nc(N[C@H]2CC[C@H](NS(=O)(=O)CC(C)C)CC2)nc2[nH]nc(N3CCOC[C@H]3C)c12 [compound 39, N-(trans-4-((4-Methoxy-3-((R)-3-methylmorpholino)-1H-pyrazolo[3,4-d]pyrimidin-6-yl)amino)cyclohexyl)-2-methylpropane-1-sulfonamide]
≥ 20 µM: all assays above
